Reference: PubChem BioAssay AID1259407 (Chemical Carcinogenesis Research Information System (CCRIS), 2018)
Active and inactive are the calls of the source. How the calls were made is not given here.

Tested on: CCRIS mutagenicity, Ames/micronucleus/aberration tests
Experiment: CCRIS mutagenicity studies
[1] = Test System: AMES SALMONELLA TYPHIMURIUM, Strain/Indicator: TA98, Metabolic Activation: NONE, Method: PREINCUBATION
[2] = Test System: AMES SALMONELLA TYPHIMURIUM, Strain/Indicator: TA100, Metabolic Activation: NONE, Method: PREINCUBATION
[3] = Test System: AMES SALMONELLA TYPHIMURIUM, Strain/Indicator: TA1535, Metabolic Activation: NONE, Method: PREINCUBATION
[4] = Test System: AMES SALMONELLA TYPHIMURIUM, Strain/Indicator: TA1537, Metabolic Activation: NONE, Method: PREINCUBATION

In the case of `C[C@]1(Cn2ccnn2)[C@H](C(=O)O)N2C(=O)C[C@H]2S1(=O)=O`, the mutagenic call (Test System: AMES SALMONELLA TYPHIMURIUM, Strain/Indicator: TA98, Metabolic Activation: HAMSTER, LIVER, S-9, AROCLOR 1254, Method: STANDARD PLATE) is reported as “inactive; negative”, the mutagenic call [1] is reported as “inactive; negative” and the mutagenic call (Test System: AMES SALMONELLA TYPHIMURIUM, Strain/Indicator: TA98, Metabolic Activation: NONE, Method: STANDARD PLATE) is reported as “inactive; negative”. The mutagenic call (Test System: AMES SALMONELLA TYPHIMURIUM, Strain/Indicator: TA98, Metabolic Activation: S-9, Method: PREINCUBATION) was “inactive; negative”, the mutagenic call (Test System: AMES SALMONELLA TYPHIMURIUM, Strain/Indicator: TA100, Metabolic Activation: HAMSTER, LIVER, S-9, AROCLOR 1254, Method: STANDARD PLATE) was “inactive; negative” and the mutagenic call [2] was “inactive; negative”. The mutagenic call (Test System: AMES SALMONELLA TYPHIMURIUM, Strain/Indicator: TA100, Metabolic Activation: NONE, Method: STANDARD PLATE) was “inactive; negative”, the mutagenic call (Test System: AMES SALMONELLA TYPHIMURIUM, Strain/Indicator: TA100, Metabolic Activation: S-9, Method: PREINCUBATION) was “inactive; negative” and the mutagenic call (Test System: AMES SALMONELLA TYPHIMURIUM, Strain/Indicator: TA102, Metabolic Activation: HAMSTER, LIVER, S-9, AROCLOR 1254, Method: STANDARD PLATE) was “inactive; negative”. For the same molecule, the mutagenic call (Test System: AMES SALMONELLA TYPHIMURIUM, Strain/Indicator: TA102, Metabolic Activation: NONE, Method: STANDARD PLATE) was “inactive; negative”, the mutagenic call [3] was “inactive; negative” and the mutagenic call (Test System: AMES SALMONELLA TYPHIMURIUM, Strain/Indicator: TA1535, Metabolic Activation: S-9, Method: PREINCUBATION) was “inactive; negative”. The mutagenic call [4] was “inactive; negative”, the mutagenic call (Test System: AMES SALMONELLA TYPHIMURIUM, Strain/Indicator: TA1537, Metabolic Activation: S-9, Method: PREINCUBATION) was “inactive; negative” and the mutagenic call (Test System: E. COLI, Strain/Indicator: WP2 UVRA, Metabolic Activation: NONE, Method: PREINCUBATION) was “inactive; negative”. The mutagenic call (Test System: E. COLI, Strain/Indicator: WP2 UVRA, Metabolic Activation: S-9, Method: PREINCUBATION) was “inactive; negative”.
With `CC1CN(N=O)CC(C)O1` (centres undefined) the mutagenic call (Test System: AMES SALMONELLA TYPHIMURIUM, Strain/Indicator: TA100, Metabolic Activation: HAMSTER, LIVER, S-9, 3-METHYLCHOLANTHRENE, Method: PREINCUBATION) was “active; positive”, the mutagenic call (Test System: AMES SALMONELLA TYPHIMURIUM, Strain/Indicator: TA100, Metabolic Activation: HAMSTER, LIVER, S-9, PHENOBARBITAL, Method: PREINCUBATION) was “active; positive” and the mutagenic call (Test System: AMES SALMONELLA TYPHIMURIUM, Strain/Indicator: TA100, Metabolic Activation: HAMSTER, LIVER, S-9, Method: PREINCUBATION) was “active; positive”. The mutagenic call (Test System: AMES SALMONELLA TYPHIMURIUM, Strain/Indicator: TA100, Metabolic Activation: HUMAN, LIVER, S-9, Method: PREINCUBATION) was “inactive; negative”, the mutagenic call (Test System: AMES SALMONELLA TYPHIMURIUM, Strain/Indicator: TA100, Metabolic Activation: MONKEY, LIVER, S-9, Method: PREINCUBATION) was “active; positive” and the mutagenic call (Test System: AMES SALMONELLA TYPHIMURIUM, Strain/Indicator: TA100, Metabolic Activation: MOUSE, LIVER, S-9, 3-METHYLCHOLANTHRENE, Method: PREINCUBATION) was “active; positive”. The mutagenic call (Test System: AMES SALMONELLA TYPHIMURIUM, Strain/Indicator: TA100, Metabolic Activation: MOUSE, LIVER, S-9, PHENOBARBITAL, Method: PREINCUBATION) was “active; positive”, the mutagenic call (Test System: AMES SALMONELLA TYPHIMURIUM, Strain/Indicator: TA100, Metabolic Activation: MOUSE, LIVER, S-9, Method: PREINCUBATION) was “active; positive” and the mutagenic call [2] was “inactive; negative”. The mutagenic call (Test System: AMES SALMONELLA TYPHIMURIUM, Strain/Indicator: TA100, Metabolic Activation: RABBIT, LIVER, S-9, Method: PREINCUBATION) was “active; positive”, the mutagenic call (Test System: AMES SALMONELLA TYPHIMURIUM, Strain/Indicator: TA100, Metabolic Activation: RAT, LIVER, CYTOSOL, PCB, Method: PREINCUBATION) was “inactive; negative” and the mutagenic call (Test System: AMES SALMONELLA TYPHIMURIUM, Strain/Indicator: TA100, Metabolic Activation: RAT, LIVER, MICROSOMES AND CYTOSOL, PCB, Method: PREINCUBATION) was “active; positive”. For the same molecule, the mutagenic call (Test System: AMES SALMONELLA TYPHIMURIUM, Strain/Indicator: TA100, Metabolic Activation: RAT, LIVER, MICROSOMES AND G6PDH, PCB, Method: PREINCUBATION) was “active; positive”, the mutagenic call (Test System: AMES SALMONELLA TYPHIMURIUM, Strain/Indicator: TA100, Metabolic Activation: RAT, LIVER, MICROSOMES, PCB, Method: PREINCUBATION) was “active; positive” and the mutagenic call (Test System: AMES SALMONELLA TYPHIMURIUM, Strain/Indicator: TA100, Metabolic Activation: RAT, LIVER, S-9 (HEATED), PCB, Method: PREINCUBATION) was “inactive; negative”. For the same molecule, the mutagenic call (Test System: AMES SALMONELLA TYPHIMURIUM, Strain/Indicator: TA100, Metabolic Activation: RAT, LIVER, S-9, 3-METHYLCHOLANTHRENE, Method: PREINCUBATION) was “active; positive”, the mutagenic call (Test System: AMES SALMONELLA TYPHIMURIUM, Strain/Indicator: TA100, Metabolic Activation: RAT, LIVER, S-9, PCB, Method: PREINCUBATION) was “active; positive” and the mutagenic call (Test System: AMES SALMONELLA TYPHIMURIUM, Strain/Indicator: TA100, Metabolic Activation: RAT, LIVER, S-9, PHENOBARBITAL, Method: PREINCUBATION) was “active; positive”. For the same molecule, the mutagenic call (Test System: AMES SALMONELLA TYPHIMURIUM, Strain/Indicator: TA100, Metabolic Activation: RAT, LIVER, S-9, Method: PREINCUBATION) was “active; positive”, the mutagenic call (Test System: AMES SALMONELLA TYPHIMURIUM, Strain/Indicator: TA100, Metabolic Activation: RAT, LIVER, S-9 WITHOUT NADP+, PCB, Method: PREINCUBATION) was “inactive; negative” and the mutagenic call (Test System: AMES SALMONELLA TYPHIMURIUM, Strain/Indicator: TA100, Method: PREINCUBATION) was “active; positive”.
`Cc1cc(S(=O)(=O)O)c([N+](=O)[O-])cc1[N+](=O)[O-]` was tested, and the mutagenic call (End Point: In vitro chromosomal aberrations, Test System: V79 Chinese hamster fibroblasts, Metabolic Activation: None) was “inactive; negative”, the mutagenic call (Test System: Ames Salmonella typhimurium, Strain/Indicator: TA98, Metabolic Activation: None, Method: Standard plate) was “inactive; negative” and the mutagenic call (Test System: Ames Salmonella typhimurium, Strain/Indicator: TA98, Metabolic Activation: Rat, Liver, S-9, Method: Standard plate) was “inactive; negative”. The mutagenic call (Test System: Ames Salmonella typhimurium, Strain/Indicator: TA100, Metabolic Activation: None, Method: Standard plate) was “inactive; negative” and the mutagenic call (Test System: Ames Salmonella typhimurium, Strain/Indicator: TA100, Metabolic Activation: Rat, Liver, S-9, Method: Standard plate) was “inactive; negative”.
`CCCBr` was tested, and the mutagenic call (End Point: In vitro micronucleus, Test System: Chinese Hamster Ovary (CHO-WBL) cells, Metabolic Activation: None) was “inactive; negative”, the mutagenic call [1] was “inactive; negative” and the mutagenic call (Test System: AMES SALMONELLA TYPHIMURIUM, Strain/Indicator: TA98, Metabolic Activation: RAT LIVER S-9, PHENOBARBITAL AND BETA-NAPHTHOFLAVONE, Method: PREINCUBATION) was “inactive; negative”. The mutagenic call [2] was “inactive; negative”, the mutagenic call (Test System: AMES SALMONELLA TYPHIMURIUM, Strain/Indicator: TA100, Metabolic Activation: RAT LIVER S-9, PHENOBARBITAL AND BETA-NAPHTHOFLAVONE, Method: PREINCUBATION) was “inactive; negative” and the mutagenic call (Test System: AMES SALMONELLA TYPHIMURIUM, Strain/Indicator: TA102, Metabolic Activation: NONE, Method: PREINCUBATION) was “inactive; negative”. For the same molecule, the mutagenic call (Test System: AMES SALMONELLA TYPHIMURIUM, Strain/Indicator: TA102, Metabolic Activation: RAT LIVER S-9, PHENOBARBITAL AND BETA-NAPHTHOFLAVONE, Method: PREINCUBATION) was “inactive; negative”, the mutagenic call (Test System: AMES SALMONELLA TYPHIMURIUM, Strain/Indicator: TA104, Metabolic Activation: NONE, Method: PREINCUBATION) was “inactive; negative” and the mutagenic call (Test System: AMES SALMONELLA TYPHIMURIUM, Strain/Indicator: TA104, Metabolic Activation: RAT LIVER S-9, PHENOBARBITAL AND BETA-NAPHTHOFLAVONE, Method: PREINCUBATION) was “inactive; negative”. For the same molecule, the mutagenic call [3] was “inactive; negative”, the mutagenic call (Test System: AMES SALMONELLA TYPHIMURIUM, Strain/Indicator: TA1535, Metabolic Activation: RAT LIVER S-9, PHENOBARBITAL AND BETA-NAPHTHOFLAVONE, Method: PREINCUBATION) was “inactive; negative” and the mutagenic call [4] was “inactive; negative”. For the same molecule, the mutagenic call (Test System: AMES SALMONELLA TYPHIMURIUM, Strain/Indicator: TA1537, Metabolic Activation: RAT LIVER S-9, PHENOBARBITAL AND BETA-NAPHTHOFLAVONE, Method: PREINCUBATION) was “inactive; negative”, the mutagenic call (Test System: E.COLI, Strain/Indicator: WP2UVRA/PKM101, Metabolic Activation: NONE, Method: PREINCUBATION) was “inactive; negative” and the mutagenic call (Test System: E.COLI, Strain/Indicator: WP2UVRA/PKM101, Metabolic Activation: RAT LIVER S-9, PHENOBARBITAL AND BETA-NAPHTHOFLAVONE, Method: PREINCUBATION) was “inactive; negative”. For the same molecule, the mutagenic call (Test System: E.COLI, Strain/Indicator: WP2UVRA, Metabolic Activation: NONE, Method: PREINCUBATION) was “inactive; negative” and the mutagenic call (Test System: E.COLI, Strain/Indicator: WP2UVRA, Metabolic Activation: RAT LIVER S-9, PHENOBARBITAL AND BETA-NAPHTHOFLAVONE, Method: PREINCUBATION) was “inactive; negative”.
